Values of other authors, collected in US9988396B2, “Oxaziridine compound and production method thereof” (SEED RESEARCH INSTITUTE CO., LTD., priority 2016, dated 2018).

How the values were obtained:
pathogens of candidiasis = conditions: statement in background, from patent document 1 (WO2015/030197)
[1] = tested on: PANC-1 pancreas cancer cell

CC=C(Cc1ccccc1)C12CC(O)CCN1O2 (stereo not drawn) [Kakeromycin]
antifungal activity / antibacterial activity against pathogens of candidiasis (pathogens of candidiasis): strong antibacterial activity | cytotoxicity (HepG2 liver cancer cell): shows cytotoxicity | cytotoxicity [1]: shows cytotoxicity
